Results on three molecules are retold here after patent US20040005601A1, “Methods for targeting quadruplex DNA” (priority 2002, published 2004).

The subject of assay [1] is Pu27 chair quadruplex (CMYC NHE III1). Kind of assay: Taq polymerase stop assay at 60° C. with Pu27 insert template. Type of assay: biochemical. The protocol:
The same wild-type and mutant sequences of the Pu27 were used in a Taq polymerase stop assay, which was described in Han et al., Nucl. Acids Res. 27: 537-542 (1999). This assay is a modification of that used by Weitzmann et al., J. Biol. Chem. 271, 20958-20964 (1996), and is also described below. A reaction mixture of template DNA (77-mer with a Pu27 or mutant Pu27 insert) (50 nM), Tris.HCl (50 mM), MgCl2 (10 mM), DTT (0.5 mM), EDTA (0.1 mM), BSA (60 ng), and 5′-end-labeled 18-mer primer (˜18 nM) was heated to 90° C. for 5 min and allowed to cool to ambient temperature over 30 min. Taq Polymerase (1 μl) was added to the reaction mixture, and the reaction was maintained at a constant temperature (45° C. for the mutant Pu27 comparison; 60° C. for the porphyrin comparison) for 30 min. (For the porphyrin comparison, following cooling to ambient temperature, the requisite amount of porphyrin solution was added to the reaction mixture and left at ambient temperature for 30 min prior to the addition of polymerase.) Following the addition of 10 μl stop buffer (formamide [20 ml], 1 M NaOH [200 μl], 0.5 M EDTA [400 μl], 10 mg bromophenol blue), the DNA fragments were separated with a sequencing gel (12%) and visualized on a phosphorimager. Adenine sequencing (indicated by “A” at the top of the gel) was performed using double-stranded DNA Cycle Sequencing System from Life Technologies. The general sequence for 77-mer template strands was TCCAACTATGTATAC-INSERT-[…], and the 1 8-mer primer had the sequence TAATACGACTCACTATAG.
To further determine whether this selectivity of TMPyP4 versus TMPyP2 for the chair conformation correlated with an effect on CMYC transcription, a Taq polymerase stop assay was performed at an elevated temperature (60° C.) to partially destabilize the arresting quadruplex structure in the presence of increasing concentrations of TMPyP2 and TMPyP4. […] This is in agreement with the differential effects of the two compounds on CMYC expression in vitro and sensitivity in vivo to tumors that overexpress CMYC (MX-1 and PC-3).

The subject of the next assay is G-quadruplex structures. Conditions: cited from earlier work.
The subject of assay [2] is CMYC. Description: CMYC expression in Ramos Burkitt's lymphoma cell line (NHE III1 retained). Type of assay: cell-based. As for the experimental part:
(§1) The importance of the NHE III1 sequence in mediating the CMYC transcriptional inhibition by TMPyP4 was assessed. Two Burkitt's lymphoma cell lines with different translocation break points within the CMYC and immunoglobulin loci were analyzed, which are referred to as the Ramos cell line and the CA46 cell line. While the Ramos cell line retained the NHE III1 during the translocation, the CA46 cell line lost this element, together with the P1 and P2 promoters (FIG. 5A). When the NHE III1 element was deleted, as in the CA46 cell line, TMPyP4 had no effect on CMYC transcriptional activation.

Assay [3] deals with CMYC. Conditions: cited from earlier work.
The subject of assay [4] is RET quadruplex. Description: Stabilization of RET quadruplex structure (polymerase arrest / chemical footprinting). Type of assay: biochemical. The source says:
(§2) Nucleic acids in a chair conformation often have similar but not identical structures when compared to one another and differences can manifest in loop size and nucleotide sequence, quadruplex geometry, quadruplex stability, the number of alternative chair structures for a given nucleotide sequence, and chemical reactivity, and binding of other molecules. Polymerase arrest assays and chemical footprinting studies applied to the CMYC chair quadruplex structure as described hereafter also were applied to nucleotide sequences upstream of the PDGFA and RET genes. It was determined that the NHE regions 5′ of the RET and PDGFA genes formed chair quadruplex structures that regulated transcription. FIG. 6A depicts a generalized quadruplex chair structure formed in the CMYC, PDGFA, and RET regulatory regions. In this chair structure, CMYC and RET have two stable tetrads and PDGFA has three stable tetrads. The N1 loop for CMYC is TG, for RET is GCG, and for PDGFA is CG. The N2 loop for CMYC is GAG, for RET is GCG, and for PDGFA is GCG. The N3 loop for CMYC is TG, for RET is GCG, and for PDGFA is CG (form A) or AG (form B). The different forms of the PDGFA quadruplex are depicted in FIG. 6C and the RET quadruplex structure is depicted in FIG. 6B. […]

Assay [5] concerns CMYC. Description: CMYC transcription in CA46 Burkitt's lymphoma cell line (NHE III1 deleted). Type of assay: cell-based. The conditions noted are these: NHE III1 element deleted. As for the experimental part: as §1
The next assay deals with CMYC quadruplex. Description: Stabilization of CMYC quadruplex structure (polymerase arrest / chemical footprinting). Type of assay: biochemical.
Text: as §2

The subject of assay [6] is CMYC. Kind of assay: CMYC expression in MiaPaCa cells. The conditions noted are these: 100 μM. Type of assay: cell-based, human.
For a further assay, the system named is RET. Kind of assay: RET RNA expression in MiaPaCa cells (RT-PCR). Type of assay: cell-based, human. Conditions: for downregulation of RET RNA expression: IC70 concentration. The protocol: The effects of two test molecules also were assessed for the RET quadruplex. MiaPaCa-2 (human pancreatic tumor) were obtained from ATCC and were cultured at 37° C./5% CO2 in RPMI medium (Cellgro) with 10% fetal bovine serum (FBS), 50 U/ml penicillin G sodium, and 50 U/ml streptomycin sulfate (Gibco/BRL). Cells were treated with TMPyP4 and telomestatin (for the latter molecule, see, e.g., Shin-ya et al., J. Am. Chem. Soc. 123:1262 (2001)) when they reached ˜50% confluency. MiaPaCa cells were first washed with 5 ml of sterile phosphate-buffered saline (PBS, Fisher Scientific). The PBS was aspirated from the cells by vacuum, and replaced with 5 ml of Opti-MEM medium (Gibco-BRL) containing 6 μl Lipofectin (Invitrogen). Compounds then were added to the medium. Cells were allowed to grow at 37° C./5% CO2 for 6 hours to allow for transfection, and the medium was replaced with normal growth medium. […] The trypsin was neutralized with an equal volume of culture medium, the cells were then pelleted from this mixture by centrifugation at 500×gravity, the supernatant was aspirated, and the pellet was washed in PBS, recentrifuged, and frozen at −80° C.
RET RNA then was extracted from the cells. Cell pellets were thawed and resuspended in 400 μl of a buffer from a commercially available kit (i.e., Buffer RA1 from the NucleoSpin RNA II Kit (Clontech)). Total cellular RNA extraction was performed according to the manufacturer's protocol. Reverse transcription was performed to convert mRNA (i.e., polyadenylated RNA) to cDNA, and RET-specific primers were used in PCR to amplify RET message.

The subject of the next assay is Pu27 chair G-quadruplex. Kind of assay: Porphyrin photocleavage of Pu27 chair quadruplex. Type of assay: binding. The conditions noted are these: exposure to light. The source says: The two quadruplex conformations of Pu27 were contacted with compounds known to bind quadruplex structures. Specifically, the two conformations were contacted with TMPyP4 and TMPyP2 (FIG. 4A) to further confirm the biologically relevant quadruplex conformation (FIGS. 4B or 4C). It has been shown that both TMPyP4 and TMPyP2 catalyze the oxidation of DNA upon exposure to light, which results in DNA strand breakage in proximity to the binding sites (Han et al., J. Am. Chem. Soc. 123: 8902-8913 (2001)).
An identical cleavage pattern was produced by both compounds for the basket quadruplex (FIG. 4B). DNA damage was centered on the constituent guanines of the six-base bridging loop, inferring that both porphyrins are able to bind to this region, but in a nonspecific way that is neither intercalating nor end-stacking (FIG. 4A).

Another assay concerns PDGFA quadruplex. Kind of assay: Stabilization of PDGFA quadruplex structure (polymerase arrest / chemical footprinting). Type of assay: biochemical.
Text: as §2

The subject of assay [7] is RET quadruplex. Kind of assay: Photo-induced cleavage of the RET quadruplex. Type of assay: binding.

`C[n+]1ccccc1-c1c2nc(c(-c3cccc[n+]3C)c3ccc([nH]3)c(-c3cccc[n+]3C)c3ccc([nH]3)c(-c3cccc[n+]3C)c3nc1C=C3)C=C2` [TMPyP2]: the “stabilization of the quadruplex arrest site” value in assay [1] (up to 20 μM compound, 60° C.) is listed as “only modestly stabilized”. In addition, the “binding to G-quadruplex structures” value in the assay on G-quadruplex structures was “bound with less affinity”. In the assay on CMYC [2], the “effect on CMYC expression” value is “not”. The “effect on CMYC transcription and protein expression” value with CMYC [3] is reported as “not”.

In the case of `C[n+]1ccc(-c2c3nc(c(-c4cc[n+](C)cc4)c4ccc([nH]4)c(-c4cc[n+](C)cc4)c4ccc([nH]4)c(-c4cc[n+](C)cc4)c4nc2C=C4)C=C3)cc1` [TMPyP4], in the assay on RET quadruplex [4], the “stabilization of RET quadruplex structure” value is listed as “not the RET quadruplex”. Besides, the “effect on CMYC transcriptional activation” value in the assay on CMYC [5] was “no effect”. The “stabilization of CMYC quadruplex structure” value with CMYC quadruplex is on record as “stabilized”. Further, in the assay on CMYC [6], the “downregulation of CMYC” value is “about 50%”. Also, the “polymerase arrest at quadruplex arrest site” value in [1] (0.5 μM compound, 60° C.) is given as approximately 65%; in assay [1] (5 μM compound, 60° C.), “virtually total arrest”. The “conformation of Pu27 stabilized” value in [1] (chair versus basket) is on record as “stabilizes the chair conformation over the basket conformation”. Moreover, the “binding to G-quadruplex structures” value with G-quadruplex structures is given as “able to bind”. The “downregulation of RET” value with RET (100 μM) is recorded as “did not significantly downregulate”. Also, the “photocleavage pattern of chair G-quadruplex” value in the assay on Pu27 chair G-quadruplex is listed as “specific cleavage pattern”. Further, the “effect on CMYC expression” value in the assay with CMYC [2] was “lowered CMYC expression”. The “effect on CMYC transcription and protein expression” value in the assay with CMYC [3] is listed as “lowered”. In addition, the “stabilization of PDGFA quadruplex structure” value in the assay on PDGFA quadruplex is given as “stabilized”. In addition, the “binding site on RET quadruplex from photo-induced cleavage” value in the assay with RET quadruplex [7] was “binds above and below the two stable tetrads”.

On to `Cc1oc2nc1-c1nc(co1)-c1nc(co1)-c1nc(co1)-c1nc(co1)-c1nc(co1)C1=NC(CS1)c1nc-2c(C)o1` (centres unmarked) [telomestatin], for which the “downregulation of RET RNA expression” value with RET (after 48 hours) and in the assay with RET (after 72 hours) was “at least 50%” each time.
